# From patent US20250066389A1, “HETEROCYCLIC AMIDES AND METHODS OF USING THE SAME” (Rgenta Therapeutics, Inc., priority 2021, published 2025)
# Where a name gives a salt, the structure may show the parent alone.
# Tested on: PMS1
# Assay: Mini-Gene Reporter Assay—PMS1 (firefly luciferase mini-gene reporter transiently transfected into HEK293 cells)
# Type: cell-based
# Conditions: Homo sapiens; at 5 uM; mini-gene firefly luciferase reporter in HEK293 cells; read-out: PMS1 % Effect at 5 uM
# From the text: Example 76. Mini-Gene Reporter Assay—PMS1
# Mini-gene reporter constructs for each target site can be constructed by first PCR amplifying the region-of-interest including the sequence of the alternatively skipped, sequences of the immediate upstream and downstream introns, and sequences of the immediate upstream and downstream exons. Then the 3′ end of the amplified sequence can be ligated to a firefly luciferase reporter gene and cloned into the pcDNA3.1 vector backbone. The final reporter construct can be transiently transfected into HEK293 cells using Lipofectamine 3000 transfection reagents. Compounds that can induce the inclusion of the skipped exon in the reporter construct would increase the reporter firefly luciferase activity.
# Test compounds may be diluted in duplicates and dispensed into an assay plate. Transient mini-gene reporter cell line stock is resuspended and dispensed into the assay plate. Assay plates are then centrifuged and incubated. A luciferase reagent (e.g. ONE-Glo firefly luciferase reagent from Promega®) may be added to the assay plate and the luminescence (RLU) signals recorded. EC50 values may be determined by curve fitting in Levenberg-Marquardt algorithm.
# In Table D below, A indicates a IC50 (μM)<1 μM, B indicates a IC50 (μM) 1 μM to <10 μM, and C indicates a IC50 (μM) 10 μM to <50 μM. In Table D below, A indicates a >75% Effect at 5 μM μM. B indicates a 50 to <75% Effect at 5 μM μM, and C indicates a <50% Effect at 5 μM.
row,SMILES,activation at 5 µM [%]
1,"COc1cc2nc(C)cn2cc1C(=O)Nc1ccc(N2C[C@H]3CNC[C@H]3C2)cc1F [Compound 161, N-(2-fluoro-4-((3aR,6aS)-hexahydropyrrolo[3,4-c]pyrrol-2(1H)-yl)phenyl)-7-methoxy-2-methylimidazo[1,2-a]pyridine-6-carboxamide]",> 75
2,"COc1cc2nc(C)cn2cc1C(=O)Nc1ccc(N2CC(C)NCC2C)cc1F (centres unmarked) [Compound 163, N-(4-(2,5-dimethylpiperazin-1-yl)-2-fluorophenyl)-7-methoxy-2-methylimidazo[1,2-a]pyridine-6-carboxamide]",> 75
3,"CNC1CCN(c2ccc(NC(=O)c3cn4cc(C)nc4cc3OC)c(F)c2)CC1 [Compound 164, N-(2-fluoro-4-(4-(methylamino)piperidin-1-yl)phenyl)-7-methoxy-2-methylimidazo[1,2-a]pyridine-6-carboxamide]",> 75
4,"CNCC1CCN(c2ccc(NC(=O)c3cn4cc(C)nc4cc3OC)c(F)c2)C1 (centres unmarked) [Compound 166, N-(2-fluoro-4-(3-((methylamino)methyl)pyrrolidin-1-yl)phenyl)-7-methoxy-2-methylimidazo[1,2-a]pyridine-6-carboxamide]",< 50
5,"CNC1CCCN(c2ccc(NC(=O)c3cn4cc(C)nc4cc3OC)c(F)c2)C1 (centres unmarked) [Compound 167, N-(2-fluoro-4-(3-(methylamino)piperidin-1-yl)phenyl)-7-methoxy-2-methylimidazo[1,2-a]pyridine-6-carboxamide]",50 to 75
6,"CCNC1CCN(c2ccc(NC(=O)c3cn4cc(C)nc4cc3OC)c(F)c2)C1 (centres unmarked) [Compound 168, N-(4-(3-(ethylamino)pyrrolidin-1-yl)-2-fluorophenyl)-7-methoxy-2-methylimidazo[1,2-a]pyridine-6-carboxamide]",> 75
7,"COc1cc2nc(C)cn2cc1C(=O)Nc1ccc(N(C)C2CCNCC2)cc1F [Compound 169, N-(2-fluoro-4-(methyl(piperidin-4-yl)amino)phenyl)-7-methoxy-2-methylimidazo[1,2-a]pyridine-6-carboxamide]",50 to 75
8,"COc1cc2nc(C)cn2cc1C(=O)Nc1ccc(N2CCC3CC2CN3)cc1F (centres unmarked) [Compound 170, N-(4-(2,6-diazabicyclo[3.2.1]octan-2-yl)-2-fluorophenyl)-7-methoxy-2-methylimidazo[1,2-a]pyridine-6-carboxamide]",> 75
9,"COc1cc2nc(C)cn2cc1C(=O)Nc1ccc(N2CCC3(CCN3)C2)cc1F (centres unmarked) [Compound 171, N-(2-fluoro-4-(1,6-diazaspiro[3.4]octan-6-yl)phenyl)-7-methoxy-2-methylimidazo[1,2-a]pyridine-6-carboxamide]",> 75
10,"COc1cc2nc(C)cn2cc1C(=O)Nc1ccc(N2CCC3(CC2)COC(C)CN3)cc1F (centres unmarked) [Compound 172, N-(2-fluoro-4-(3-methyl-4-oxa-1,9-diazaspiro[5.5]undecan-9-yl)phenyl)-7-methoxy-2-methylimidazo[1,2-a]pyridine-6-carboxamide]",50 to 75
11,"CCOc1cc2nn(C)cc2cc1C(=O)Nc1ccc(N2CCN[C@@H](C)C2)nn1 [Compound 208, (S)-6-ethoxy-2-methyl-N-(6-(3-methylpiperazin-1-yl)pyridazin-3-yl)-2H-indazole-5-carboxamide HCl Salt]",> 75

# Same assay, conditions: Homo sapiens; mini-gene firefly luciferase reporter in HEK293 cells
row,IC50 [nM],SMILES
1,1000 to 10000,"COc1cc2nc(C)cn2cc1C(=O)Nc1ccc(N2CCNC(CC(F)F)C2)cc1F (centres unmarked) [Compound 173, N-(4-(3-(2,2-difluoroethyl)piperazin-1-yl)-2-fluorophenyl)-7-methoxy-2-methylimidazo[1,2-a]pyridine-6-carboxamide]"
2,< 1000,"COc1cc2nc(C)cn2cc1C(=O)Nc1ccc(N2CCCNCC2)cc1F [Compound 175, N-(4-(1,4-diazepan-1-yl)-2-fluorophenyl)-7-methoxy-2-methylimidazo[1,2-a]pyridine-6-carboxamide]"
3,< 1000,"CNC1CCN(c2ccc(NC(=O)c3cn4cc(C)nc4cc3OC)c(F)c2)C1 (centres unmarked) [Compound 176, N-(2-fluoro-4-(3-(methylamino)pyrrolidin-1-yl)phenyl)-7-methoxy-2-methylimidazo[1,2-a]pyridine-6-carboxamide]"
4,< 1000,"COc1cc2nc(C)cn2cc1C(=O)Nc1ccc(N2CCNCC2C)cc1F (centres unmarked) [Compound 177, N-(2-fluoro-4-(2-methylpiperazin-1-yl)phenyl)-7-methoxy-2-methylimidazo[1,2-a]pyridine-6-carboxamide]"
5,< 1000,"COc1cc2nc(C)cn2cc1C(=O)Nc1ccc(N(C)C2CCNC2)cc1F (centres unmarked) [Compound 178, N-(2-fluoro-4-(methyl(pyrrolidin-3-yl)amino)phenyl)-7-methoxy-2-methylimidazo[1,2-a]pyridine-6-carboxamide]"
6,< 1000,"COc1cc2nc(C)cn2cc1C(=O)Nc1ccc(N2CCNC(C)C2)cc1F (centres unmarked) [Compound 179, N-(2-fluoro-4-(3-methylpiperazin-1-yl)phenyl)-7-methoxy-2-methylimidazo[1,2-a]pyridine-6-carboxamide]"
7,< 1000,"COc1cc2nc(C)cn2cc1C(=O)Nc1ccc(N(C)C2CNC2)cc1F [Compound 180, N-(4-(azetidin-3-yl(methyl)amino)-2-fluorophenyl)-7-methoxy-2-methylimidazo[1,2-a]pyridine-6-carboxamide]"
8,< 1000,"COc1cc2nc(C)cn2cc1C(=O)Nc1cnc(N2CCN[C@@H](C)C2)cn1 [Compound 198, (S)-7-methoxy-2-methyl-N-(5-(3-methylpiperazin-1-yl)pyrazin-2-yl)imidazo[1,2-a]pyridine-6-carboxamide hydrochloride]"
9,< 1000,"Cc1cn2cc(C(=O)Nc3ccc(N4CCN[C@@H](C)C4)nn3)c(OC(C)C)cc2n1 [Compound 199, (S)-7-isopropoxy-2-methyl-N-(6-(3-methylpiperazin-1-yl)pyridazin-3-yl)imidazo[1,2-a]pyridine-6-carboxamide]"
10,< 1000,"Cc1cn2cc(C(=O)Nc3ccc(N4CCN[C@@H](C)C4)nn3)c(OC3CCOC3)cc2n1 (stereo partly drawn) [Compound 206, 2-methyl-N-(6-((S)-3-methylpiperazin-1-yl)pyridazin-3-yl)-7-((tetrahydrofuran-3-yl)oxy)imidazo[1,2-a]pyridine-6-carboxamide hydrochloride]"
11,< 1000,"CCOc1cc2nn(C)cc2cc1C(=O)Nc1ccc(N2CCN[C@@H](C)C2)nn1 [Compound 208, (S)-6-ethoxy-2-methyl-N-(6-(3-methylpiperazin-1-yl)pyridazin-3-yl)-2H-indazole-5-carboxamide HCl Salt]"

row,SMILES,IC50 [nM]
1,"COc1cc2nc(C)cn2cc1C(=O)Nc1ccc(N2CC3CCC(C2)N3)cc1F [Compound 165, N-(4-(3,8-diazabicyclo[3.2.1]octan-3-yl)-2-fluorophenyl)-7-methoxy-2-methylimidazo[1,2-a]pyridine-6-carboxamide]",< 1000
2,"Cc1cn2cc(C(=O)Nc3ccc(N4CCNCC4)nn3)c(OC3CCC3)cc2n1 [Compound 205, 7-cyclobutoxy-2-methyl-N-(6-(piperazin-1-yl)pyridazin-3-yl)imidazo[1,2-a]pyridine-6-carboxamide hydrochloride]",< 1000
3,"Cn1cc2cc(C(=O)Nc3ccc(N4CCNCC4)nn3)c(OC3CCC3)cc2n1 [Compound 207, 6-cyclobutoxy-2-methyl-N-(6-(piperazin-1-yl)pyridazin-3-yl)-2H-indazole-5-carboxamide HCl Salt]",< 1000
4,"C[C@H]1CN(c2ccc(NC(=O)c3cc4cn(C)nc4cc3OC3CCC3)nn2)CCN1 [Compound 209, (S)-6-cyclobutoxy-2-methyl-N-(6-(3-methylpiperazin-1-yl)pyridazin-3-yl)-2H-indazole-5-carboxamide HCl Salt]",< 1000
